Results from ChEMBL document CHEMBL3045847, “Efficacy evaluation of a neem (Azadirachta indica A. Juss) formulation against root-knot nematodes Meloidogyne incognita” (Crop Prot, 2009).
The source made the active and inactive calls. The rule behind the calls is not given here.

Columns and labels:
[1] = Chemical stability of the compound after 4 days by HPLC analysis; type: physicochemical; settings: 96 h
[2] = system: Meloidogyne incognita; experiment: Insecticidal activity against second stage juveniles of Meloidogyne incognita (root-knot nematode) assessed as increase in immotile at 51.2 ug a.i/ml in methanol after 48 to 96 hr; type: functional
[3] = system: Meloidogyne incognita; experiment: Insecticidal activity against second stage juveniles of Meloidogyne incognita (root-knot nematode) assessed as increase in immotile at 12.8 to 51.2 ug a.i/ml in water after 24 to 96 hr; type: functional
[4] = system: Solanum lycopersicum; experiment: Phytotoxicity in Solanum lycopersicum (tomato) assessed as effect on shoot and root fresh weight at 0.03 to 30.72 ug/g after 24 hr; type: organism-based; settings: in vivo
[5] = system: Solanum lycopersicum; experiment: Toxicity in Solanum lycopersicum (tomato) assessed as effect on shoot and root fresh weight at 0.03 to 30.72 ug/g after 24 hr; type: organism-based; settings: in vivo
[6] = Chemical stability of the compound after 72 hr by HPLC analysis; type: physicochemical
[7] = system: Meloidogyne incognita; experiment: Insecticidal activity against second stage juveniles of Meloidogyne incognita (root-knot nematode) assessed as decrease of female nematodes in tomato roots at 2 ug/g after 30 days by pot bioassay; type: functional, organism-based
[8] = system: Solanum lycopersicum; experiment: Phytotoxicity in Solanum lycopersicum (tomato) assessed as effect on shoot and root fresh weight at 2 ug/g after 24 hr; type: organism-based; settings: in vivo
[9] = system: Solanum lycopersicum; experiment: Toxicity in Solanum lycopersicum (tomato) assessed as effect on shoot and root fresh weight at 2 ug/g after 24 hr; type: organism-based; settings: in vivo
[10] = system: Meloidogyne incognita; experiment: Insecticidal activity against second stage juveniles of Meloidogyne incognita (root-knot nematode) assessed as motility at 0.2 to 3.2 ug a.i/ml in water after 24 to 96 hr; type: functional, organism-based
[11] = system: Meloidogyne incognita; experiment: Insecticidal activity against second stage juveniles of Meloidogyne incognita (root-knot nematode) assessed as decrease of female nematodes in tomato roots at 0.03 to 30.72 ug/g after 30 days by pot bioassay; type: functional, organism-based
[12] = system: Meloidogyne incognita; experiment: Insecticidal activity against second stage juveniles of Meloidogyne incognita (root-knot nematode) assessed as motility at 0.2 ug a.i/ml in water after 24 to 96 hr; type: functional, organism-based
[13] = system: Meloidogyne incognita; experiment: Insecticidal activity against second stage juveniles of Meloidogyne incognita (root-knot nematode) assessed as increase in immotile at 12.8 to 51.2 ug a.i/ml in methanol after 24 to 96 hr; type: functional, organism-based
[14] = system: Meloidogyne incognita; experiment: Insecticidal activity against second stage juveniles of Meloidogyne incognita (root-knot nematode) assessed as motility at 0.2 to 3.2 ug a.i/ml in methanol after 24 to 96 hr; type: functional, organism-based

## C/C=C(\C)C(=O)O[C@H]1C[C@@H](OC(C)=O)[C@@]2(C(=O)OC)CO[C@H]3[C@@H](O)[C@@](C)([C@]45O[C@@]4(C)[C@@H]4C[C@H]5O[C@@H]5OC=C[C@@]54O)[C@H]4[C@]1(CO[C@]4(O)C(=O)OC)[C@@H]32 (stereo in doubt; form 1) [AZADIRACHTIN A]
[1]
  Activity: 84%
[2]
  Activity: 11%

## C/C=C(\C)C(=O)O[C@H]1C[C@@H](OC(C)=O)[C@@]2(C(=O)OC)CO[C@H]3[C@@H](O)[C@@](C)([C@]45O[C@@]4(C)[C@@H]4C[C@H]5O[C@@H]5OC=C[C@@]54O)[C@H]4[C@]1(CO[C@]4(O)C(=O)OC)[C@@H]32 (stereo in doubt; form 2) [AZADIRACHTIN A]
[3]
  Activity: 21%
[1]
  Activity: 88%
[4]
  Activity: Non-toxic
[5]
  Activity: Non-toxic
[6]
  Stability: Stable

## CCOP(=O)(SC(C)CC)N1CCSC1=O (stereo not given) [FOSTHIAZATE]
[7]
  Activity: Active
[8]
  Activity: Non-toxic
[9]
  Activity: Non-toxic

## C/C=C(\C)C(=O)O[C@H]1C[C@@H](OC(C)=O)[C@@]2(C(=O)OC)CO[C@H]3[C@@H](O)[C@@](C)([C@]45O[C@@]4(C)[C@@H]4C[C@H]5O[C@@H]5OC=C[C@@]54O)[C@H]4[C@]1(CO[C@]4(O)C(=O)OC)[C@@H]32 (stereo in doubt; form 2)
[10]
  Activity: inactive
[11]
  Activity: inactive
[12]
  Activity: inactive

## C/C=C(\C)C(=O)O[C@H]1C[C@@H](OC(C)=O)[C@@]2(C(=O)OC)CO[C@H]3[C@@H](O)[C@@](C)([C@]45O[C@@]4(C)[C@@H]4C[C@H]5O[C@@H]5OC=C[C@@]54O)[C@H]4[C@]1(CO[C@]4(O)C(=O)OC)[C@@H]32 (stereo in doubt; form 1)
[13]
  Activity: Active
[14]
  Activity: inactive
